Experimental data: the supplement of paper PMC9013687
± gives the standard deviation of the averaged measurements.

What was measured:
Danio rerio embryo [1] = tested on: Danio rerio embryo
Description: (§1)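 Zebrafish embryos (UFZ-OBI strain) were exposed from 2 hpf for 48 h (2 dpf) or 96 h (4 dpf) at 28 °C; spontaneous tail coiling was scored at 25 hpf. Morphological features from automated image analysis (FishInspector), heart rate and locomotor response were fitted with drc models. Quantal endpoints were dichotomised at 2.5 SD from controls and fitted with a log-logistic model; heart rate, pigmentation and STC were normalised to the replicate control mean. Betamethasone was tested as betamethasone dipropionate, diflorasone as diflorasone diacetate.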

Danio rerio embryo [2] = conditions: exposure time: 4 dpf
Description: as §1

Danio rerio embryo [3] = assay: EC50 Curvature_Increase; conditions: exposure time: 2 dpf
Description: as §1

Danio rerio embryo [4] = assay: EC50 Body length_Decrease
Description: as §1

Danio rerio embryo [5] = assay: EC50 Bladder size_Decrease; conditions: exposure time: 4 dpf
Description: as §1

Danio rerio embryo [6] = assay: EC50 Pericard size_Increase
Description: as §1

Danio rerio embryo [7] = assay: EC50 Yolk sac size_Increase; conditions: exposure time: 4 dpf
Description: as §1

Danio rerio embryo [8] = assay: EC50 Eye-jaw distance_Decrease; conditions: exposure time: 4 dpf
Description: as §1

Danio rerio embryo [9] = assay: EC50 Otolith-eye distance_Decrease; conditions: exposure time: 4 dpf
Description: as §1

Danio rerio embryo [10] = assay: EC10 LMR dark; higher = less potent; conditions: exposure time: 4 dpf
Description: as §1

Danio rerio embryo [11] = assay: EC20 LMR dark; higher = less potent; conditions: exposure time: 4 dpf
Description: as §1

Danio rerio embryo [12] = assay: EC20 Any effect; higher = less potent
Description: as §1

Danio rerio embryo [13] = assay: EC10 Any effect; higher = less potent
Description: as §1

Danio rerio embryo [14] = assay: EC10 Curvature_Increase; higher = less potent; conditions: exposure time: 2 dpf
Description: as §1

Danio rerio embryo [15] = assay: EC20 Curvature_Increase; higher = less potent; conditions: exposure time: 2 dpf
Description: as §1

Danio rerio embryo [16] = assay: EC20 Body length_Decrease; higher = less potent
Description: as §1

Danio rerio embryo [17] = assay: EC10 Body length_Decrease; higher = less potent
Description: as §1

Danio rerio embryo [18] = assay: EC10 Bladder size_Decrease; higher = less potent; conditions: exposure time: 4 dpf
Description: as §1

Danio rerio embryo [19] = assay: EC20 Bladder size_Decrease; higher = less potent; conditions: exposure time: 4 dpf
Description: as §1

Danio rerio embryo [20] = assay: EC20 Yolk sac size_Increase; higher = less potent; conditions: exposure time: 4 dpf
Description: as §1

Danio rerio embryo [21] = assay: EC20 Pericard size_Increase; higher = less potent
Description: as §1

Danio rerio embryo [22] = assay: EC10 Yolk sac size_Increase; higher = less potent; conditions: exposure time: 4 dpf
Description: as §1

Danio rerio embryo [23] = assay: EC10 Pericard size_Increase; higher = less potent
Description: as §1

Danio rerio embryo [24] = assay: EC20 Eye-jaw distance_Decrease; higher = less potent; conditions: exposure time: 4 dpf
Description: as §1

Danio rerio embryo [25] = assay: EC10 Eye-jaw distance_Decrease; higher = less potent; conditions: exposure time: 4 dpf
Description: as §1

Danio rerio embryo [26] = assay: EC20 Head trunk angle_Decrease; higher = less potent; conditions: exposure time: 2 dpf
Description: as §1

Danio rerio embryo [27] = assay: EC20 Otolith-eye distance_Decrease; higher = less potent; conditions: exposure time: 4 dpf
Description: as §1

Danio rerio embryo [28] = assay: EC10 Otolith-eye distance_Decrease; higher = less potent; conditions: exposure time: 4 dpf
Description: as §1

Danio rerio embryo [29] = assay: spontaneous tail coiling frequency (coils/min/embryo); higher = more spontaneous movement; conditions: 25 hpf
Description: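 Spontaneous tail coilings of zebrafish embryos exposed from 2 hpf were recorded at 24-25 hpf in 1-min videos and detected by a KNIME workflow from grey-value variance. Betamethasone was tested as the dipropionate, diflorasone as the diacetate.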

CSc1nc2cc(Cl)c(Oc3cccc(Cl)c3Cl)cc2[nH]1 [Triclabendazole]
EC50 Any effect (Danio rerio embryo [1]; exposure time: 2 dpf): 1340 nM
EC50 Any effect (Danio rerio embryo [1]; exposure time: 4 dpf): 556 nM
EC50 Pigmentation increase (Danio rerio embryo [1]; exposure time: 4 dpf): 690 nM
EC50 STC decrease (Danio rerio embryo [1]; exposure time: 25 h): 76 nM
EC50 LMR dark (Danio rerio embryo [2]): 403 nM
EC50 Curvature Increase (Danio rerio embryo [3]): 1980 nM
EC50 Body length Decrease (Danio rerio embryo [4]; exposure time: 2 dpf): 1270 nM
EC50 Body length Decrease (Danio rerio embryo [4]; exposure time: 4 dpf): 1090 nM
EC50 Bladder size Decrease (Danio rerio embryo [5]): 497 nM
EC50 Pericard size Increase (Danio rerio embryo [6]; exposure time: 2 dpf): 2140 nM
EC50 Pericard size Increase (Danio rerio embryo [6]; exposure time: 4 dpf): 782 nM
EC50 Yolk sac size Increase (Danio rerio embryo [7]): 691 nM
EC50 Eye-jaw distance Decrease (Danio rerio embryo [8]): 731 nM
EC50 Otolith-eye distance Decrease (Danio rerio embryo [9]): 796 nM
EC10 LMR dark (Danio rerio embryo [10]): 178 nM
EC20 LMR dark (Danio rerio embryo [11]): 240 nM
EC20 Any effect (Danio rerio embryo [12]; exposure time: 2 dpf): 1040 nM
EC20 Any effect (Danio rerio embryo [12]; exposure time: 4 dpf): 411 nM
EC10 Any effect (Danio rerio embryo [13]; exposure time: 2 dpf): 893 nM
EC10 Any effect (Danio rerio embryo [13]; exposure time: 4 dpf): 344 nM
EC10 Curvature Increase (Danio rerio embryo [14]): 1710 nM
EC20 Curvature Increase (Danio rerio embryo [15]): 1810 nM
EC20 Body length Decrease (Danio rerio embryo [16]; exposure time: 2 dpf): 850 nM
EC20 Body length Decrease (Danio rerio embryo [16]; exposure time: 4 dpf): 738 nM
EC10 Body length Decrease (Danio rerio embryo [17]; exposure time: 2 dpf): 672 nM
EC10 Body length Decrease (Danio rerio embryo [17]; exposure time: 4 dpf): 586 nM
EC10 Bladder size Decrease (Danio rerio embryo [18]): 462 nM
EC20 Bladder size Decrease (Danio rerio embryo [19]): 475 nM
EC20 Yolk sac size Increase (Danio rerio embryo [20]): 533 nM
EC20 Pericard size Increase (Danio rerio embryo [21]; exposure time: 2 dpf): 1010 nM
EC20 Pericard size Increase (Danio rerio embryo [21]; exposure time: 4 dpf): 775 nM
EC10 Yolk sac size Increase (Danio rerio embryo [22]): 458 nM
EC10 Pericard size Increase (Danio rerio embryo [23]; exposure time: 2 dpf): 651 nM
EC10 Pericard size Increase (Danio rerio embryo [23]; exposure time: 4 dpf): 772 nM
EC20 Eye-jaw distance Decrease (Danio rerio embryo [24]): 708 nM
EC10 Eye-jaw distance Decrease (Danio rerio embryo [25]): 695 nM
EC20 Head trunk angle Decrease (Danio rerio embryo [26]): 1600 nM
EC20 Otolith-eye distance Decrease (Danio rerio embryo [27]): 622 nM
EC10 Otolith-eye distance Decrease (Danio rerio embryo [28]): 538 nM
spontaneous tail coiling frequency (Danio rerio embryo [29]; 0.139 µM): 0.65
spontaneous tail coiling frequency (Danio rerio embryo [29]; 0.488205 µM): 1.35
spontaneous tail coiling frequency (Danio rerio embryo [29]; 0.577 µM): 1.03
spontaneous tail coiling frequency (Danio rerio embryo [29]; 0.732308 µM): 1.05
spontaneous tail coiling frequency (Danio rerio embryo [29]; 0.835 µM): 1.49 ± 0.096
spontaneous tail coiling frequency (Danio rerio embryo [29]; 1.086 µM): 1.13
spontaneous tail coiling frequency (Danio rerio embryo [29]; 1.09846 µM): 0.655
spontaneous tail coiling frequency (Danio rerio embryo [29]; 1.412 µM): 0.667 ± 0.38
spontaneous tail coiling frequency (Danio rerio embryo [29]; 1.64769 µM): 1.2
spontaneous tail coiling frequency (Danio rerio embryo [29]; 1.835 µM): 0.75 ± 0.38
spontaneous tail coiling frequency (Danio rerio embryo [29]; 2.386 µM): 0.583 ± 0.35
spontaneous tail coiling frequency (Danio rerio embryo [29]; 2.47154 µM): 0.315
spontaneous tail coiling frequency (Danio rerio embryo [29]; 3.70731 µM): 0.06
